According to patent US20170121344A1 (Siga Technologies, Inc., priority 2009, published 2017):
Read-outs that look alike come from different tables or passages of the source.

Columns and labels:
[1] = system: Dengue-2 (Strain New Guinea C); test: Viral yield assay against Dengue-2 in Vero cells; type: cell-based, Dengue virus; conditions: Dengue virus, read-out: Activity (EC50 in μM) DENV-2
Outline: (§1)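 Yield reduction, Vero; MOI 0.1; compound vs DMSO; 37° C; harvest 48 h p.i.; titer on Vero; EC50 fitted. Other serotypes run the same way.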

DENV-1 = test: Viral yield assay against DENV-1 in Vero cells; type: cell-based; conditions: Dengue virus
Outline: as §1

DENV-3 = test: Viral yield assay against DENV-3 in Vero cells; type: cell-based; conditions: Dengue virus
Outline: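 Vero cells were infected with dengue-2 at MOI 0.1, treated with compound (DMSO control), and kept at 37° C. They were harvested 48 hours post infection and yield was titered on Vero cells. EC50 came from the yield curve, and the other serotypes were run in a similar way.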

DENV-4 = test: Viral yield assay against DENV-4 in Vero cells; type: cell-based; conditions: Dengue virus
Outline: as §1

[2] = DENV2, viral yield assay, Vero cells, MOI 0.1, 48 hours post infection

SMILES	EC50 ([1]; DENV2, Vero cells)	EC50 (DENV-1; DENV1)	EC50 (DENV-3; DENV3)	EC50 (DENV-4; DENV4)	EC50 ([1]; DENV2, Vero, 48 h)	EC50 (DENV-1; DENV1, viral yield assay)	EC50 (DENV-3; DENV3, viral yield assay)	EC50 (DENV-4; DENV4, viral yield assay)	EC50 [1, 2]
C[N+](C)(C)CC(=O)Nc1c(C(=O)Nc2cccc(C(F)(F)F)c2)sc2nc(-c3cccs3)ccc12 [Compound 309, Trimethyl-[2-oxo-2-[[6-(2-thienyl)-2-[[3-(trifluoromethyl)phenyl]carbamoyl]thieno[2,3-b]pyridin-3-yl]amino]ethyl]ammonium]	< 5 µM	< 5 µM	< 5 µM	< 5 µM	–	–	–	–	–
Nc1c(C(=O)Nc2cccc(F)c2)sc2nc(-c3ccc4c(c3)OCO4)ccc12 [Compound 602, 3-amino-6-(1,3-benzodioxol-5-yl)-N-(3-fluorophenyl)thieno[2,3-b]pyridine-2-carboxamide]	–	–	–	–	< 5 µM	< 5 µM	< 5 µM	5 to 25 µM	–
Nc1c(C(=O)Nc2ccc(OC(F)F)cc2)sc2nc(-c3ccc(Cl)cc3)ccc12 [Compound 340, 3-amino-6-(4-chlorophenyl)-N-[4-(difluoro-methoxy)phe-nyl]thieno[2,3-b]pyridine-2-carboxamide]	–	–	–	–	–	< 5 µM	< 5 µM	< 5 µM	< 5 µM
CC(=O)c1ccc(NC(=O)c2sc3nc(-c4cccs4)ccc3c2N)cc1 [Compound 429, N-(4-acetylphenyl)-3-amino-6-(2-thienyl)thieno[2,3-b]pyridine-2-carboxamide]	–	–	–	–	–	< 5 µM	< 5 µM	< 5 µM	< 5 µM
COc1ccc(-c2ccc3c(N)c(C(=O)Nc4ccc(C(F)(F)F)cc4)sc3n2)cc1OC [Compound 475, 3-amino-6-(3,4-dimethoxyphenyl)-N-[4-(trifluoromethyl)phenyl]thieno[2,3-b] pyridine-2-carboxamide]	–	–	–	–	–	< 5 µM	< 5 µM	< 5 µM	< 5 µM
COc1cccc(-c2ccc3c(N)c(C(=O)Nc4cccc(C(F)(F)F)c4)sc3n2)c1 [Compound 450, 3-amino-6-(3-methoxyphenyl)-N-[3-(trifluoromethyl)phenyl]thieno[2,3-b] pyridine-2-carboxamide]	–	–	–	–	–	< 5 µM	< 5 µM	< 5 µM	< 5 µM
CN1CCc2nc3sc(C(=O)Nc4ccc(OC(F)(F)F)cc4)c(NCC(=O)O)c3cc2C1 [Compound 303, 2-[[6-methyl-2-[[4-(trifluoromethoxy)phenyl]carbamoyl]-7,8-dihydro-5H-thieno[2,3-b][1,6]naphthyridin-3-yl]amino]acetic acid]	< 5 µM	5 to 25 µM	5 to 25 µM	< 5 µM	–	–	–	–	–
Cc1ccc(NC(=O)c2sc3nc(-c4ccc5c(c4)OCO5)ccc3c2N)c(Br)c1 [Compound 514, 3-amino-6-(1,3-benzodioxol-5-yl)-N-(2-bromo-4-methyl-phenyl)thieno[2,3-b] pyridine-2-carboxamide]	–	–	–	–	–	< 5 µM	< 5 µM	< 5 µM	< 5 µM
Nc1c(C(=O)Nc2ccc(C(F)(F)F)cc2)sc2nc(-c3ccc4c(c3)OCO4)ccc12 [Compound 452, 3-amino-6-(1,3-benzodioxol-5-yl)-N-[4-(trifluoromethyl)phenyl]thieno[2,3-b] pyridine-2-carboxamide]	–	–	–	–	–	< 5 µM	< 5 µM	< 5 µM	< 5 µM
Cc1ccc(-c2ccc3c(N)c(C(=O)Nc4ccc(Cl)cc4)sc3n2)cc1 [Compound 648, 3-amino-N-(4-chlorophenyl)-6-(p-tolyl) thieno[2,3-b]pyridine-2-carboxamide]	–	–	–	–	–	< 5 µM	< 5 µM	< 5 µM	< 5 µM
Nc1c(C(=O)Nc2ccc(Cl)cc2)sc2nc(-c3ccc(Cl)cc3)ccc12 [Compound 333, 3-amino-N,6-bis(4-chlorophenyl)thieno [2,3-b]pyridine-2-carboxamide]	–	–	–	–	–	< 5 µM	< 5 µM	< 5 µM	< 5 µM
COc1ccc(-c2ccc3c(N)c(C(=O)Nc4ccc(Cl)cc4)sc3n2)cc1 [Compound 493, 3-amino-N-(4-chlorophenyl)-6-(4-methoxyphenyl)thieno[2,3-b]pyridine-2-carboxamide]	–	–	–	–	–	< 5 µM	< 5 µM	< 5 µM	< 5 µM
COc1cccc(-c2ccc3c(N)c(C(=O)Nc4ccc(Br)cc4)sc3n2)c1 [Compound 446, 3-amino-N-(4-bromophenyl)-6-(3-methoxyphenyl)thieno[2,3-b]pyridine-2-carboxamide]	–	–	–	–	–	< 5 µM	< 5 µM	< 5 µM	< 5 µM
COc1ccc(Cl)cc1NC(=O)c1sc2nc(-c3ccc(OC)c(OC)c3)ccc2c1N [Compound 532, 3-amino-N-(5-chloro-2-methoxy-phenyl)-6-(3,4-dimethoxyphenyl)thieno[2,3-b] pyridine-2-carboxamide]	–	–	–	–	–	< 5 µM	< 5 µM	< 5 µM	< 5 µM
COc1cccc(-c2ccc3c(N)c(C(=O)Nc4cccc(C)c4)sc3n2)c1 [Compound 547, 3-amino-6-(3-mehtoxyphenyl)-N-(m-tolyl)thieno[2,3-b]pyridine-2-carboxamide]	–	–	–	–	–	< 5 µM	< 5 µM	< 5 µM	< 5 µM
N#Cc1c(O)nc2sc(C(=O)Nc3ccc(Br)cc3)c(N)c2c1-c1ccco1 [Compound 325, 3-amino-N-(4-bromophenyl)-5-cyano-4-(2-furyl)-6-hydroxy-thieno[2,3-b]pyridine-2-carboxamide]	–	–	–	–	–	< 5 µM	< 5 µM	< 5 µM	< 5 µM
COc1ccc(-c2ccc3c(N)c(C(=O)Nc4ccc(C)c(Cl)c4)sc3n2)cc1OC [Compound 574, 3-amino-N-(3-chloro-4-mehtyl-phenyl)-6-(3,4-dimethoxyphenyl)thieno[2,3-b] pyridine-2-carboxamide]	–	–	–	–	–	< 5 µM	< 5 µM	< 5 µM	< 5 µM
Nc1c(C(=O)Nc2ccc(C(F)(F)F)cc2)sc2nc(-c3cccs3)ccc12 [Compound 459, 3-amino-6-(2-thienyl)-N-[4-(trifluoromethyl)phenyl]thieno[2,3-b] pyridine-2-carboxamide]	–	–	–	–	–	< 5 µM	< 5 µM	< 5 µM	< 5 µM
CCC(C)c1ccc(NC(=O)c2sc3nc(-c4cccc(OC)c4)ccc3c2N)cc1 (centres unmarked) [Compound 555, 3-amino-6-(3-methoxyphenyl)-N-(4-sec-butylphenyl)thieno[2,3-b]pyridine-2-carboxamide]	–	–	–	–	–	< 5 µM	< 5 µM	< 5 µM	< 5 µM
Nc1c(C(=O)Nc2ccccc2)sc2nc(-c3cccs3)ccc12 [Compound 411, 3-amino-N-phenyl-6-(2-thienyl)thieno [2,3-b]pyridin-2-carboxamide]	–	–	–	–	< 5 µM	< 5 µM	< 5 µM	< 5 µM	–
Nc1c(C(=O)Nc2nnc(-c3ccccc3)s2)sc2nc3c(cc12)C(=O)CCCC3 [Compound 328]	–	–	–	–	–	< 5 µM	5 to 25 µM	< 5 µM	< 5 µM
O=C(O)CC(=O)Nc1c(C(=O)Nc2nnc(-c3ccccc3)s2)sc2nc(Cl)ccc12 [Compound 362, 3-[[6-chloro-2-[(5-phenyl-1,3,4-thiadiazol-2-yl)carbamoyl]thieno[2,3-b]pyridin-3-yl]amino]-3-oxo-propanoic acid]	5 to 25 µM	5 to 25 µM	> 25 µM	> 25 µM	–	–	–	–	–
COc1ccc(NC(=O)c2sc3nc(-c4ccc(F)cc4)ccc3c2N)cc1 [Compound 535, 3-amino-6-(4-fluorophenyl)-N-(4-methoxyphenyl)thieno[2,3-b]pyridine-2-carboxamide]	–	–	–	–	–	< 5 µM	< 5 µM	< 5 µM	< 5 µM
Cc1ccc(NC(=O)c2sc3nc(-c4ccc5c(c4)OCO5)ccc3c2N)c(C)c1 [Compound 596, 3-amino-6-(1,3-benzodioxol-5-yl)-N-(2,4-dimethyphenyl)thieno[2,3-b]pyridine-2-carboxamide]	–	–	–	–	–	< 5 µM	< 5 µM	< 5 µM	< 5 µM
Nc1c(C(=O)Nc2cc(F)ccc2F)sc2nc(-c3cccs3)ccc12 [Compound 470, 3-amino-N-(2,5-difluorophenyl)-6-(2-thienyl)thieno[2,3-b]pyridine-2-carboxamide]	–	–	–	–	< 5 µM	< 5 µM	< 5 µM	< 5 µM	–
COc1ccc(-c2ccc3c(N)c(C(=O)Nc4ccc(C)cc4C)sc3n2)cc1OC [Compound 530, 3-amino-6-(3,4-dimethoxyphenyl)-N-(2,4-dimethylphenyl)thieno[2,3-b]pyridine-2-carboxamide]	–	–	–	–	–	< 5 µM	< 5 µM	< 5 µM	< 5 µM
Cc1ccc(-c2ccc3c(N)c(C(=O)Nc4ccc(Br)cc4)sc3n2)cc1 [Compound 485, 3-amino-N-(4-bromophenyl)-6-(p-tolyl) thieno[2,3-b]pyridine-2-carboxamide]	–	–	–	–	–	< 5 µM	< 5 µM	< 5 µM	< 5 µM
Nc1c(C(=O)Nc2ccccc2Br)sc2nc(-c3cccs3)ccc12 [Compound 462, 3-amino-N-(2-bromophenyl)-6-(2-thienyl)thieno[2,3-b]pyridine-2-carboxamide]	–	–	–	–	–	< 5 µM	< 5 µM	< 5 µM	< 5 µM
CN1CCc2nc3sc(C(=O)Nc4nnc(-c5ccccc5)s4)c(N)c3cc2C1 [Compound 301, 3-amino-6-methyl-N-(5-phenyl-1,3,4-thiadiazol-2-yl)-7,8-dihydro-5H-thieno[2,3-b][1,6]naphthyridine-2-carboxamide]	–	–	–	–	–	< 5 µM	5 to 25 µM	< 5 µM	< 5 µM
